Measured values from ChEMBL document CHEMBL2303647, “Data associated with the publication PLoS ONE, 8(3), e57888, (2013) PMID: 23505445. Compounds: GSK PKIS; Assays: NIH NCATS”.

Experiments:
[1] = target: Luciferin 4-monooxygenase (Photinus pyralis, UniProt P08659)
Description: GSK_PKIS: Inhibition of Firefly Luciferase (Data from PubChem: AID 652016) [NIH NCATS]

[2] = target: T1, Coelenterazine h 2-monooxygenase (Renilla reniformis, UniProt P27652)
T1 sequence (P27652 whole entry): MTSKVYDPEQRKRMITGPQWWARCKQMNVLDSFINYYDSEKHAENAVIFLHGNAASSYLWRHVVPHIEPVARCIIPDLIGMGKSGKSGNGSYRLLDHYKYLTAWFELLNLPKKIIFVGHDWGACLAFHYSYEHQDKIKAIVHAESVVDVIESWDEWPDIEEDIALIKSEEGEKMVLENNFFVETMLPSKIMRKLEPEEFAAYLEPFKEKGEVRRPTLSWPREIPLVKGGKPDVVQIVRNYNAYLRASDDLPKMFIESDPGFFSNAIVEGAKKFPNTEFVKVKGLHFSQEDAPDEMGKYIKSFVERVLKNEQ
Description: GSK_PKIS: Inhibition of Sea Pansy Luciferase (Data from PubChem: AID 652015) [NIH NCATS]

Sequence of Luciferin 4-monooxygenase (P08659 whole entry): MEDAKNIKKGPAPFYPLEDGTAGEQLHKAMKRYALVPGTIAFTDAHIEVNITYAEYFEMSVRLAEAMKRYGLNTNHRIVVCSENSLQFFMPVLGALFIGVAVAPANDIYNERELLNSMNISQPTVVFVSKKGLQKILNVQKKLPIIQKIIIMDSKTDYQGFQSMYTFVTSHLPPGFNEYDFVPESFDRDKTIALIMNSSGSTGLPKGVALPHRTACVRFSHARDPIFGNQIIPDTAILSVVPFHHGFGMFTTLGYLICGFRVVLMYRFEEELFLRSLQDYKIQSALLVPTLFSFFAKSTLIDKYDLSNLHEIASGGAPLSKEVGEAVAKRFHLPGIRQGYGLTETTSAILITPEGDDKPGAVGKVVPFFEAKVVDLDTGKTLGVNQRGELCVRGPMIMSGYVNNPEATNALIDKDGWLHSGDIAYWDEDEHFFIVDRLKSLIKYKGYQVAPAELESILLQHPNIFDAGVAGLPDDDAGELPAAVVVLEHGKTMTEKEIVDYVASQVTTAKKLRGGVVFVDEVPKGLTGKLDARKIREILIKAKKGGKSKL

Question: What does the source list for `N#Cc1ccc(Oc2nccc(-c3c(-c4ccc(F)cc4)ncn3C3CCNCC3)n2)cc1`?
Answer: AC50 [1]: Phenotype: Inactive; Curve_Description: None; AC50 [2]: Phenotype: Inactive; Curve_Description: None

Question: With `Nc1nccc(-c2c(-c3ccc(F)cc3)ncn2CCCN2CCOCC2)n1` as the compound, how does the AC50 [1] read?
Answer: Phenotype: Inactive; Curve_Description: None

Question: What about the AC50 [2] of the same compound?
Answer: Phenotype: Inactive; Curve_Description: None

Question: For `Cc1ccc(-c2cc3c(NC(=O)C4CC4)ncnc3o2)cc1` [GW819230X], which AC50 ([1]; read-out: AC50) is on record?
Answer: 18.3 µM

Question: And the AC50 [2]?
Answer: Phenotype: Inactive; Curve_Description: None

Question: Which results are given for `NS(=O)(=O)c1ccc(N/N=C2\C(=O)Nc3ccc(Cl)cc32)cc1` [GW280670X]?
Answer: AC50 ([1]; read-out: AC50): 41.1 µM; AC50 ([2]; read-out: AC50): 36.6 µM

Question: Which results are given for `Nc1nc(-c2ccc3c(c2)C(=Cc2cc(Br)c(O)c(Br)c2)C(=O)N3)cs1` [GW407323A]?
Answer: AC50 ([1]; read-out: AC50): 29.1 µM; AC50 ([2]; read-out: AC50): 20.6 µM

Question: For `COc1ccc2cc(-c3c(-c4ccncc4)nc(-c4ccc([S+](C)[O-])cc4)n3C)ccc2c1` (centres undefined), which AC50 ([1]; read-out: AC50) is on record?
Answer: 36.6 µM

Question: What about the AC50 [2] of the same compound?
Answer: Phenotype: Inactive; Curve_Description: None

Question: How did the AC50 [1] turn out when `COc1cc(C)c(N(C)C(=O)CN(C)C)cc1Nc1nc(Nc2cccc(F)c2C(N)=O)c2cc[nH]c2n1` [GSK-2219385A] was run?
Answer: Phenotype: Inactive; Curve_Description: None

Question: What about the AC50 [2] of the same compound?
Answer: Phenotype: Inactive; Curve_Description: None

Question: How did the AC50 [1] turn out when `CN1CCC(C(=O)Nc2n[nH]c3nnc(-c4ccccc4)cc23)CC1.Cl` was run?
Answer: Phenotype: Inactive; Curve_Description: None

Question: And the AC50 [2]?
Answer: Phenotype: Inactive; Curve_Description: None

Question: With `CCS(=O)(=O)c1ccc(OC)c(Nc2nccc(N(C)c3ccc4c(C)n[nH]c4c3)n2)c1.Cl` [GW654652C] as the compound, how does the AC50 [1] read?
Answer: Phenotype: Inactive; Curve_Description: None

Question: What about the AC50 ([2]; read-out: AC50) of the same compound?
Answer: 32.6 µM

Question: What does the source list for `O=C(Nc1n[nH]c2nc(-c3ccco3)c(Br)cc12)C1CC1`?
Answer: AC50 ([1]; read-out: AC50): 20.6 µM; AC50 [2]: Phenotype: Inactive; Curve_Description: None

Question: What does the source list for `Cl.O=C(Nc1ccc(Oc2ccc3[nH]c(NC(=O)c4ccccc4)nc3c2)cc1)Nc1cc(C(F)(F)F)ccc1F` [GW709042A]?
Answer: AC50 [1]: Phenotype: Inactive; Curve_Description: None; AC50 [2]: Phenotype: Inactive; Curve_Description: None

Question: Which results are given for `COc1ccc(-c2nn3ncccc3c2-c2ccnc(Nc3ccc4c(c3)OCCO4)n2)cc1` [GW827106X]?
Answer: AC50 [1]: Phenotype: Inactive; Curve_Description: None; AC50 [2]: Phenotype: Inactive; Curve_Description: None

Question: `COc1ccccc1-c1cc(/C=C2\C(=O)Nc3ncc(Br)cc32)cc(Br)c1O` [GW442130X] was tested. Which AC50 ([1]; read-out: AC50) did it give?
Answer: 41.1 µM

Question: What about the AC50 ([2]; read-out: AC50) of the same compound?
Answer: 8.19 µM

Question: Which AC50 ([1]; read-out: AC50) does the source give for `COc1cc(Nc2nccc(Nc3ccc4c(C)n[nH]c4c3)n2)cc(OC)c1OC` [GW612286X] here?
Answer: 18.3 µM

Question: And the AC50 ([2]; read-out: AC50)?
Answer: 36.6 µM

Question: How did the AC50 ([1]; read-out: AC50) turn out when `Cc1ccc(NC(=O)CC2CC2)cc1-c1ccc(C(=O)NCC2CC2)cc1` [GW796920X] was run?
Answer: 18.3 µM

Question: And the AC50 [2]?
Answer: Phenotype: Inactive; Curve_Description: None

Question: `Cc1ccc(C(=O)NC2CC2)cc1-c1ccc2[nH]ncc2c1` [GW820759X] was tested. Which AC50 ([1]; read-out: AC50) did it give?
Answer: 18.3 µM

Question: What about the AC50 ([2]; read-out: AC50) of the same compound?
Answer: 20.6 µM

Question: What does the source list for `COc1ccc(Nc2ncc(-c3ccccc3)o2)cc1OC.Cl` [GW575533A]?
Answer: AC50 ([1]; read-out: AC50): 5.8 µM; AC50 [2]: Phenotype: Inactive; Curve_Description: None

Question: `O=S(=O)(CCOCc1ccc(-c2ccc3ncnc(Nc4ccc(OCc5cccc(F)c5)c(Cl)c4)c3c2)o1)c1ccccc1` [GW615311X] was tested. Which AC50 [1] did it give?
Answer: Phenotype: Inactive; Curve_Description: None

Question: What about the AC50 ([2]; read-out: AC50) of the same compound?
Answer: 46.1 µM

Question: `CS(=O)(=O)CCNCc1cc(-c2cc3c(Nc4ccc(OCc5cccc(F)c5)c(Cl)c4)ncnc3s2)cs1` [GSK-300014A] was tested. Which AC50 [1] did it give?
Answer: Phenotype: Inactive; Curve_Description: None

Question: What about the AC50 [2] of the same compound?
Answer: Phenotype: Activator; Curve_Description: None

Question: Which results are given for `NC(=O)c1sc(-n2cnc3ccc(C(F)(F)F)cc32)cc1OCc1ccccc1Br` [GW853606X]?
Answer: AC50 [1]: Phenotype: Inactive; Curve_Description: None; AC50 [2]: Phenotype: Inactive; Curve_Description: None

Question: What does the source list for `CCN(CC)Cc1ccc(Nc2nccc(-c3cnn4ncccc34)n2)cc1` [GW780056X]?
Answer: AC50 [1]: Phenotype: Inactive; Curve_Description: None; AC50 ([2]; read-out: AC50): 20.6 µM

Question: With `NC(=O)c1sc(-n2cnc3cc(C(F)(F)F)ccc32)cc1OCc1ccccc1Br` [GW853609X] as the compound, how does the AC50 [1] read?
Answer: Phenotype: Inactive; Curve_Description: None

Question: And the AC50 [2]?
Answer: Phenotype: Inactive; Curve_Description: None
